Laboratory results as given in PubChem BioAssay (NCI).
“And” between values parts separate entries of the source, which are not always exact repeats. Equal entries are not always repeated.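 These data come from cells grown in 96-well plates and exposed to compound for 48 hours at five concentrations. GI50 marks 50% less growth. TGI is the concentration that stops growth completely.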

Key:
Test in all cases: NCI tumour cell line growth inhibition, 48 h
K-562 leukemia = test system: K-562 leukemia
OVCAR-8 ovarian = test system: OVCAR-8 ovarian
NCI/ADR-RES ovarian = test system: NCI/ADR-RES ovarian
SW-620 colon = test system: SW-620 colon
SK-MEL-2 melanoma = test system: SK-MEL-2 melanoma
HT29 colon = test system: HT29 colon
RPMI-8226 leukemia = test system: RPMI-8226 leukemia
UACC-62 melanoma = test system: UACC-62 melanoma
DU-145 prostate = test system: DU-145 prostate
OVCAR-4 ovarian = test system: OVCAR-4 ovarian
MCF7 breast = test system: MCF7 breast
UACC-257 melanoma = test system: UACC-257 melanoma
SF-539 CNS = test system: SF-539 CNS
CCRF-CEM leukemia = test system: CCRF-CEM leukemia

Row | SMILES | TGI (K-562 leukemia) | TGI (OVCAR-8 ovarian) | TGI (NCI/ADR-RES ovarian) | TGI (SW-620 colon) | TGI (SK-MEL-2 melanoma) | TGI (HT29 colon) | TGI (RPMI-8226 leukemia) | TGI (UACC-62 melanoma) | TGI (DU-145 prostate) | TGI (OVCAR-4 ovarian) | TGI (MCF7 breast) | TGI (UACC-257 melanoma) | TGI (SF-539 CNS) | TGI (CCRF-CEM leukemia) | GI50 (SK-MEL-2 melanoma) | GI50 (RPMI-8226 leukemia)
1 | CC1(C)/C(=N\Nc2ccc([N+](=O)[O-])cc2[N+](=O)[O-])C2CCC1C2 (stereo unspecified) | > 100 µM | > 100 µM | > 100 µM | > 100 µM | > 100 µM | > 100 µM | > 100 µM | > 100 µM | > 100 µM | > 100 µM | > 100 µM | > 100 µM |  |  |  | 
2 | COc1cc(C(=O)N(C(=S)OC23CC4CC(CC(C4)C2)C3)c2ccccc2)cc(OC)c1OC | > 100 µM | > 100 µM | > 100 µM | > 100 µM | 32.1 µM | 41.8 µM |  | > 100 µM | > 100 µM | > 100 µM | > 100 µM | > 100 µM | > 100 µM | 36 µM |  | 
3 | COc1ccc(S(=O)(=O)Nc2ccc(-c3csc(N4C(=O)/C(=C/c5cccs5)N=C4c4ccccc4)n3)cc2)cc1Cl | > 100 µM | > 100 µM | > 100 µM | > 100 µM | > 100 µM | > 100 µM |  | > 100 µM | > 100 µM | > 100 µM | > 100 µM | > 100 µM | > 100 µM |  |  | 
4 | O=C1CSC(c2cccc(Oc3ccccc3)c2)N1c1cccc(Cl)c1Cl (stereo unspecified) | 63.9 µM | 45.9 µM | 59.9 µM | > 100 µM | 34.9 µM | 63.1 µM |  | 46.9 µM | > 100 µM | > 100 µM | 32.8 µM | 61.5 µM | 58.3 µM | > 100 µM |  | 
5 | CCCCN1CCC(O)(c2cc(C(=O)O)[nH]c2-c2cc(C)no2)C1=O (stereo unspecified) | > 100 µM | > 100 µM | > 100 µM | > 100 µM | > 100 µM | > 100 µM | > 100 µM | > 100 µM | > 100 µM | > 100 µM | > 100 µM | > 100 µM |  |  |  | 
6 | COc1cc(OC)cc(C(=O)Cc2c(C(=O)c3ccccc3)c3ccccc3n2C(=O)c2ccccc2)c1 | > 100 µM | > 100 µM |  | > 100 µM | 65.9 µM | > 100 µM | > 100 µM | > 100 µM |  | > 100 µM |  |  | > 100 µM | > 100 µM |  | 
7 | O=C(c1cccc2cc(O)ccc12)c1cn(CCN2CCOCC2)c2ccccc12 | > 100 µM | > 100 µM |  | > 100 µM | 25 µM | 37.1 µM | 68.8 µM | 38.5 µM | 73 µM |  | 66.8 µM | 56 µM | > 100 µM | 34.4 µM |  | 
8 | C=CC(C)(C)n1cc(C2=C(O)C(=O)C(c3c(CC=C(C)C)[nH]c4ccccc34)=C(O)C2=O)c2ccccc21 | 5.02 µM | 4.57 µM | 9.09 µM | 13.5 µM | 3.41 µM | 7.36 µM |  | 1.18 µM | 5.46 µM | 11.8 µM |  | 9.3 µM |  | 8.96 µM |  | 
9 | CC1=CC(=O)/C(=C/N2C(=O)CNC2=S)C(=O)O1 |  | > 100 µM | > 100 µM | > 100 µM | > 100 µM | > 100 µM |  |  | > 100 µM | > 100 µM | > 100 µM | > 100 µM | > 100 µM |  |  | 
10 | OC1(C2(c3ccc(Cl)cc3)CCCC2)c2ccccc2C2=NCCN21 (stereo unspecified) | 20.4 µM | 32 µM | 33.2 µM | 48.6 µM |  | 23.5 µM |  | 29.7 µM | 16.3 µM | 28.8 µM | 32.7 µM | 29.4 µM |  | 38.5 µM |  | 
11 | Cc1c(C#N)c(N)n(C2OC(CO)C(O)C(O)C2O)c(=S)c1C#N (stereo unspecified) | > 100 µM | > 100 µM |  | > 100 µM | > 100 µM | > 100 µM | > 100 µM | > 100 µM | > 100 µM | > 100 µM | > 100 µM | > 100 µM | > 100 µM | > 100 µM | 28.8 µM and > 100 µM | 
12 | CCOC(=O)/C=C(/C(=O)OCC)n1ccc(=O)n(CC(=O)OCC)c1=O | 1.62 µM | 6.41 µM | 8.14 µM | 0.707 µM | 12.1 µM | 3.24 µM | 4.35 µM | 3.24 µM | 17.1 µM |  | 1.84 µM | 7.72 µM | 7.88 µM |  |  | 1.77 µM
13 | CO/N=C(\C(=O)[N-][n+]1cnn(CC(=O)O)c1)c1csc(N)n1 | > 10 µM | > 10 µM |  | > 10 µM |  | > 10 µM | > 10 µM | > 10 µM | > 10 µM | > 10 µM | > 10 µM | > 10 µM |  | > 10 µM |  | 
14 | C/C(=N\Nc1nc2ccccc2o1)c1cc2ccccc2cn1 |  |  |  | > 100 µM | 12.2 µM |  | > 20.7 µM | 2.53 µM | 39.7 µM | 8.25 µM | > 33.7 µM |  |  | > 38.5 µM |  | 
15 | O=C1CN(c2ccccc2)C(=O)CN1CCN1CC(=O)N(c2ccccc2)CC1=O |  | > 100 µM |  | > 100 µM |  | > 100 µM | > 100 µM | > 100 µM | > 100 µM | > 100 µM | > 100 µM | > 100 µM | > 100 µM |  |  | 
16 | O=C1/C(=C\c2cccc(Oc3ccccc3)c2)SC(c2ccccc2)N1c1cccc(Cl)c1 (stereo unspecified) | > 100 µM | > 100 µM | > 100 µM | > 100 µM | > 100 µM | > 100 µM | > 100 µM | > 100 µM | > 100 µM | > 100 µM |  | > 100 µM |  |  |  | 
17 | COc1ccc(NS(=O)(=O)c2ccc(N=C3C=C(Nc4ccc(S(=O)(=O)Nc5ccc(OC)nn5)cc4)C(=O)c4ccccc43)cc2)nn1 | > 100 µM | 34.8 µM |  | 32.9 µM | 33.2 µM | 36.2 µM | > 100 µM | 32.6 µM |  | 50.4 µM |  | 35.8 µM | 31.6 µM | > 100 µM |  | 
18 | Fc1cc2nc3n(c2cc1F)C(c1c(Cl)cccc1Cl)SC3 (stereo unspecified) |  | 29.5 µM | 37.7 µM | 34 µM | 33.6 µM | 29.8 µM | 36.5 µM | 26.4 µM | 32.2 µM | 30.1 µM | 33.1 µM | 27 µM | 37.1 µM |  |  | 
